# Assay results reported in US4031211A, “Adriamycin esters, their preparation and use” (priority 1975, dated 1977).
# Where two headings read alike, the source gives them in different places.
# Experiments:
# [1] = tested on: experimental mouse tumors; experiment: Antitumor/therapeutic activity and toxicity in experimental mouse tumors, overall statements; type: in vivo
# L 1210 leukemia = experiment: Antitumor effect on L 1210 leukemia in mice
# Description: (§1) The compounds according to the invention were tested on several in vitro systems and experimental mouse tumors, in comparison with adriamycin.
# Ascites sarcoma 180 = experiment: Antitumor effect on ascites sarcoma 180 in mice; conditions: for LTS / TC / TOX / LTS (long term survivors, > 60 days) / TC (median survival time as compared to untreated controls) / TOX (mice which showed toxic lesions at the autopsy): ip, day 1; for LTS (long term survivors, > 60 days) / TC (median survival time as compared to untreated controls) / TOX (mice which showed toxic lesions at the autopsy): Table 1
# Description: as §1
# Gross leukemia = experiment: Antitumor effect on Gross leukemia in mice
# Description: as §1
# Moloney sarcoma virus = experiment: Inhibition of Moloney sarcoma virus-induced foci in mouse embryo fibroblasts; type: cell-based; conditions: text on Table 6, in vitro
# Description: ^2 Inhibition of Moloney sarcoma virus-induced foci in mouse embryo
# fibroblasts proliferation (treatment per 72 hours)
# solid sarcoma 180 = conditions: Table 2, i.v. per 5 days
# Description: as §1
# [2] = Table 5, first experiment, iv, days 1,2,3, 6 mg./kg.
# [3] = Table 1, iv, days 1,2,3, 4.5 mg./kg.
# [4] = Table 1, first experiment, ip, day 1, 1 mg./kg.
smiles,measurement,setting,value
"CCCCCC(=O)SCC(=O)OCC(=O)C1(O)Cc2c(O)c3c(c(O)c2C(OC2CC(N)C(O)C(C)O2)C1)C(=O)c1c(OC)cccc1C3=O.Cl (stereo not drawn) [adriamycin-14-0-hexanoyl thioglycolate, Adriamycin-14-0-Hexanoyl Thioglycolate Hydrochloride]",toxicity compared with adriamycin,[1],less toxic
same,antitumor activity compared with adriamycin,L 1210 leukemia,"marked anti-tumor effect, slightly lower than that of adriamycin"
same,TC,"L 1210 leukemia; Table 3, ip, day 1, 4 mg./kg.",133%
same,TC,"L 1210 leukemia; Table 3, ip, day 1, 8 mg./kg.",155%
same,LTS,"L 1210 leukemia; Table 3, ip, day 1, 16 mg./kg.",2/9
same,TC,"L 1210 leukemia; Table 3, ip, day 1, 16 mg./kg.",170%
same,antitumor effect compared with adriamycin,Ascites sarcoma 180,"marked anti-tumor effect, slightly lower than that of adriamycin"
same,LTS,"Ascites sarcoma 180; Table 3, 2 mg./kg.",1/10
same,TC,"Ascites sarcoma 180; Table 3, 2 mg./kg.",153%
same,TOX,"Ascites sarcoma 180; Table 3, 2 mg./kg.",1/10
same,LTS,"Ascites sarcoma 180; Table 3, 4 mg./kg.",2/10
same,TC,"Ascites sarcoma 180; Table 3, 4 mg./kg.",196%
same,TOX,"Ascites sarcoma 180; Table 3, 4 mg./kg.",1/10
same,LTS,"Ascites sarcoma 180; Table 3, 8 mg./kg.",2/10
same,TC,"Ascites sarcoma 180; Table 3, 8 mg./kg.",177%
same,TC,"Ascites sarcoma 180; Table 3, 16 mg./kg.",188%
same,TOX,"Ascites sarcoma 180; Table 3, 16 mg./kg.",6/10
"CCCCCCCCCCCC(=O)OCC(=O)OCC(=O)C1(O)Cc2c(O)c3c(c(O)c2C(OC2CC(N)C(O)C(C)O2)C1)C(=O)c1c(OC)cccc1C3=O.Cl (stereo not drawn) [adriamycin-14-0-lauroyl glycolate, Adriamycin-14-0-Lauroyl Glycolate Hydrochloride]",increase of the median survival time compared with adriamycin,Gross leukemia,higher increase of the median survival time than does adriamycin
same,TC,"Gross leukemia; Table 5, first experiment, iv, days 1,2,3, 4.5 mg./kg.",136%
same,LTS,Gross leukemia; [2],2/10
same,TC,Gross leukemia; [2],257%
same,TC,"Gross leukemia; Table 5, first experiment, iv, days 1,2,3, 7.5 mg./kg.",221%
same,TC,"Gross leukemia; Table 5, first experiment, iv, days 1,2,3, 9 mg./kg.",128%
same,TC,"Gross leukemia; Table 5, second experiment, iv, days 1,2,3, 6 mg./kg.",193%
same,TC,"Gross leukemia; Table 5, second experiment, iv, days 1,2,3, 7.5 mg./kg.",214%
same,toxicity compared with adriamycin,[1],less toxic than adriamycin
same,TC,"L 1210 leukemia; Table 5, ip, day 1, 2 mg./kg.",135%
same,TC,"L 1210 leukemia; Table 5, ip, day 1, 4 mg./kg.",141%
same,TC,"L 1210 leukemia; Table 5, ip, day 1, 8 mg./kg.",165%
same,LTS,"L 1210 leukemia; Table 5, ip, day 1, 16 mg./kg.",1/10
same,TC,"L 1210 leukemia; Table 5, ip, day 1, 16 mg./kg.",200%
same,activity on Moloney Sarcoma Virus,Moloney sarcoma virus,most active among all of them
same,number of long term survivors compared with adriamycin,Ascites sarcoma 180,higher number of long term survivors
same,LTS,"Ascites sarcoma 180; Table 5, 2 mg./kg.",4/10
same,TC,"Ascites sarcoma 180; Table 5, 2 mg./kg.",436%
same,LTS,"Ascites sarcoma 180; Table 5, 4 mg./kg.",8/10
same,TC,"Ascites sarcoma 180; Table 5, 4 mg./kg.",493%
same,TC,"Ascites sarcoma 180; Table 5, 8 mg./kg.",385%
same,TC,"Ascites sarcoma 180; Table 5, 16 mg./kg.",242%
"CCCCCCCCCCCCCCCCCC(=O)OCC(=O)OCC(=O)C1(O)Cc2c(O)c3c(c(O)c2C(OC2CC(N)C(O)C(C)O2)C1)C(=O)c1c(OC)cccc1C3=O.Cl (stereo not drawn) [adriamycin-14-0-stearoyl glycolate, Adriamycin-14-0-Stearoyl Glycolate Hydrochloride]",antitumor activity compared with adriamycin,Gross leukemia,as active as adriamycin
same,toxicity compared with adriamycin,Gross leukemia,less toxic
same,TC (median survival time as compared to untreated controls),Gross leukemia; [3],143%
same,TOX (mice which showed toxic lesions at the autopsy),Gross leukemia; [3],1/10
same,TC (median survival time as compared to untreated controls),"Gross leukemia; Table 1, iv, days 1,2,3, 6 mg./kg.",186%
same,TC (median survival time as compared to untreated controls),"Gross leukemia; Table 1, iv, days 1,2,3, 7.5 mg./kg.",186%
same,TC (median survival time as compared to untreated controls),"Gross leukemia; Table 1, iv, days 1,2,3, 9 mg./kg.",207%
same,% tumor growth at day 11,solid sarcoma 180; 2.5 mg./kg.,58%
same,% tumor growth at day 11,solid sarcoma 180; 3 mg./kg.,58%
same,% tumor growth at day 11,solid sarcoma 180; 3.5 mg./kg.,52%
same,% tumor growth at day 11,solid sarcoma 180; 4 mg./kg.,37%
same,antitumor activity compared with adriamycin,L 1210 leukemia,as active as adriamycin
same,toxicity compared with adriamycin,L 1210 leukemia,less toxic
same,TC (median survival time as compared to untreated controls),"L 1210 leukemia; Table 1, first experiment, ip, day 1, 0.2 mg./kg.",100%
same,TC (median survival time as compared to untreated controls),L 1210 leukemia; [4],133%
same,TOX (mice which showed toxic lesions at the autopsy),L 1210 leukemia; [4],1/10
same,TC (median survival time as compared to untreated controls),"L 1210 leukemia; Table 1, first experiment, ip, day 1, 5 mg./kg.",133%
same,TC (median survival time as compared to untreated controls),"L 1210 leukemia; Table 1, first experiment, ip, day 1, 10 mg./kg.",139%
same,TC (median survival time as compared to untreated controls),"L 1210 leukemia; Table 1, second experiment, ip, day 1, 10 mg./kg.",128%
same,TC (median survival time as compared to untreated controls),"L 1210 leukemia; Table 1, second experiment, ip, day 1, 12 mg./kg.",150%
same,TC (median survival time as compared to untreated controls),"L 1210 leukemia; Table 1, second experiment, ip, day 1, 15 mg./kg.",150%
same,antitumor effect compared with adriamycin,Ascites sarcoma 180,not significantly different from that of adriamycin
same,"LTS (long term survivors, > 60 days)",Ascites sarcoma 180; 0.3 mg./kg.,1/10
same,TC (median survival time as compared to untreated controls),Ascites sarcoma 180; 0.3 mg./kg.,119%
same,"LTS (long term survivors, > 60 days)",Ascites sarcoma 180; 1.6 mg./kg.,2/10
same,TC (median survival time as compared to untreated controls),Ascites sarcoma 180; 1.6 mg./kg.,222%
same,TOX (mice which showed toxic lesions at the autopsy),Ascites sarcoma 180; 1.6 mg./kg.,1/10
same,"LTS (long term survivors, > 60 days)",Ascites sarcoma 180; 7.8 mg./kg.,1/10
same,TC (median survival time as compared to untreated controls),Ascites sarcoma 180; 7.8 mg./kg.,187%
same,TOX (mice which showed toxic lesions at the autopsy),Ascites sarcoma 180; 7.8 mg./kg.,1/10
